# Literature values as cited in patent US9457010B2, “Compositions for use in treating or preventing metabolic stress-induced lung injury and methods for increasing physical capacity of mammalian livestock” (Nutri-fit GmbH & Co. KG, priority 2009, dated 2016).
# Tested on: pulmonary function
# Details: 3 weeks isocaloric diet; endotoxin challenge
smiles,measurement,value
CCCCC/C=C\C/C=C\CCCCCCCC(=O)O [linoleate],histological evidence in lung,"vascular congestion, intra-alveolar edema and alveolar septa thickening"
